Measurements: patent US11311524B2, “Pharmaceutical composition used for treatment of HTLV-1-associated myelopathy” (DAIICHI SANKYO COMPANY, LIMITED, priority 2017, dated 2022)

How the values were obtained:
[1] = tested on: HAM patient-derived PBMC; experiment: Autoproliferation (3H-thymidine incorporation) of HAM patient-derived PBMC without stimulation; format: cell-based, human; settings: for Suppression of autoproliferation activity of HAM patient-derived PBMC: no stimulation, relative to DMSO group; for GI50: Homo sapiens, PBMC of 8 HAM patients, 6 days culture, 3H-thymidine, read-out: GI50, autoproliferation activity of HAM patient-derived PBMC
Method: PBMC taken from 8 HAM patients were suspended in culture mediums (RPMI1640 culture medium (wako) containing 10% FBS (GIBCO)), seeded in a 96-well round-bottom plate in a ratio of 1×10^5 cells per well (3 wells were used for each concentration), and compound A or compound B was added so as to provide a final concentration of 1, 10, 100 or 1000 nM. Culture was carried out at 37° C. in 5% CO2 conditions for 6 days. The DMSO treatment group and the PSL (1 μg/mL) treatment group were used as controls. Day 6 after initiation of culture, 1 μCi ^3H-thymidine was added to each well and culture was carried out at 37° C., in 5% CO2 conditions for 16 hours. Thereafter, the cultured cells were allowed to adsorb to a glass filter (Printed Filtermat A, PerkinElmer) by a cell harvester (Tomtec MH3, PerkinElmer), dried and impregnated with solid scintillator Meltilex-A (PerkinElmer). The amount of the ^3H-thymidine incorporated in the cells was measured by use of MicroBeta (WALLAC MicroBeta TriLux 1450-021) (Yamano et al., PLoS One. 2009, 4(8): e6517). Based on the average count of ^3H-thymidine in the DMSO treatment group of HAM patients' PBMC as 100%, the relative values of the groups treated with compound A, compound B and PSL (1 μg/mL) were obtained by calculation, and then, an average value of 8 HAM patient cases was obtained. A significance test was carried out in accordance with the Friedman test of GraphPad Prism6 (MDF).
The number of patients was increased to 16 and the same experiment as above was carried out.
Effect on HAM patient-derived PBMC was checked in the same manner as in the above Example except that an EZH2 inhibitor was used in place of compounds A and B.
As the EZH2 inhibitor, GSK126 (CAS No.: 1346574-57-9) and E7438 (CAS No.: 1403254-99-8) were used. The concentration for treatment was 1, 10, 100, 1000 or 10000 nM in terms of final concentration. In the experiment, PBMC samples taken from the 8 persons before the number of cases increased in the above were used.

[2] = tested on: HTLV-1 infected cells in HAM patient's PBMC; experiment: HTLV-1 pro-viral load (infected cell rate) in HAM patient-derived PBMC by real time PCR; format: cell-based, human; settings: PSL 1 μg/ml control, this experimental system or clinical sites
Method: PBMC taken from 8 HAM patients were suspended in a culture medium (RPMI1640 culture medium containing 10% FBS) and seeded in a 48-well plate in a ratio of 5×10^5 cells per well, and compound A or compound B was added so as to provide a final concentration of 1, 10, 100 or 1000 nM. The culture solution of 0.5 mL in total was cultured at 37° C. in 5% CO2 conditions for 12 days. A group treated with DMSO and a group treated with PSL (1 μg/mL) were used as controls. Day 12 after initiation of culture, the culture solution was centrifuged, and thereafter, the cell suspension was recovered from each of the cultures carried out under different conditions and centrifuged. After the supernatant was removed, the cell pellet was subjected to genomic DNA extraction. The genome DNA extracted was subjected to real time PCR to measure HTLV-1 pro-viral load (infected cell rate) (Yamano et al., Blood. 2002, 99 (1): 88-94). Based on the HTLV-1 pro-viral load in cells, which were obtained by adding DMSO to each of the HAM patient's PBMC and culturing the PBMC, as 100%, the relative value of HTLV-1 pro-viral load in a group treated with compound A, compound B or PSL was calculated, and then, an average value of 8 HAM patient cases was obtained. The significance test was carried out by using the Friedman test of GraphPad Prism6 (MDF).

SMILES | Suppression of autoproliferation activity of HAM patient-derived PBMC [1] | Infected cell removal activity [2] | GI50 [1] [µM]
C[C@]12C=CC(=O)C=C1CC[C@@H]1[C@@H]2[C@@H](O)C[C@@]2(C)[C@H]1CC[C@]2(O)C(=O)CO [PSL, prednisolone, reference compound] | can suppress autoproliferation activity | does not exhibit infected cell removal activity | 
CCN(c1cc(-c2ccc(CN3CCOCC3)cc2)cc(C(=O)NCc2c(C)cc(C)[nH]c2=O)c1C)C1CCOCC1 [E7438, N-((4,6-Dimethyl-2-oxo-1,2-dihydropyridin-3-yl)methyl)-5-(ethyl(tetrahydro-2H-piran-4-yl)amino)-4-methyl-4′-(morpholinomethyl)-[1,1′-biphenyl]-3-carboxamide, reference compound] | suppress autoproliferation activity |  | 0.214
CC[C@H](C)n1cc(C)c2c(C(=O)NCc3c(C)cc(C)[nH]c3=O)cc(-c3ccc(N4CCNCC4)nc3)cc21 [GSK126, N-[(1,2-Dihydro-4,6-dimethyl-2-oxo-3-pyridinyl)methyl]-3-methyl-1-[(1S)-1-methylpropyl]-6-[6-(1-piperazinyl)-3-pyridinyl]-1H-indole-4-carboxamide, reference compound] | suppress autoproliferation activity |  | 0.724
